Like-named read-outs stand apart in the source and are kept apart here.
How the values were obtained:
Test in all cases: Kinase panel
Assay type in all cases: biochemical
BrSK2(h) = target: T1, BrSK2(h) (Homo sapiens, UniProt Q8IWQ3)
T1 construct: purchased Millipore KinaseProfiler
T1 sequence (Q8IWQ3 1-736): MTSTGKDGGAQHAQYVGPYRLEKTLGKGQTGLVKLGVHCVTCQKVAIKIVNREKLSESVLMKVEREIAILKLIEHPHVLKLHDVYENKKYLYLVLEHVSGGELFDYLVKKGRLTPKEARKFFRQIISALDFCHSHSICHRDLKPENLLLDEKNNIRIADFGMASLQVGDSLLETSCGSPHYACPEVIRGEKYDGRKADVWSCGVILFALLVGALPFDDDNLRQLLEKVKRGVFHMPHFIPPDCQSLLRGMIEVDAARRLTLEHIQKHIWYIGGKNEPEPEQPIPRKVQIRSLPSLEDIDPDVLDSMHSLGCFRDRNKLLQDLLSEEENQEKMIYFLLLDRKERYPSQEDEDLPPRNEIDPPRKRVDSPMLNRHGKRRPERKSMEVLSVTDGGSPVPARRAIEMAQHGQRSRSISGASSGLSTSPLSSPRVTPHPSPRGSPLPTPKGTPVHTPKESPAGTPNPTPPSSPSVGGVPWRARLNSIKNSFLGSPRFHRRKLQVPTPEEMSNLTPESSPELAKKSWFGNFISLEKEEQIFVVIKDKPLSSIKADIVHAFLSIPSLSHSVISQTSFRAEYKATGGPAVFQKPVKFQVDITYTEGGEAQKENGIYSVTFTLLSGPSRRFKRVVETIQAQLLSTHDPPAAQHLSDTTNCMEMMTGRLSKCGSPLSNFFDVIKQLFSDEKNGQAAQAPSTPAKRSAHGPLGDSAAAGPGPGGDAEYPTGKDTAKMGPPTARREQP

EphA2(h) = target: T2, EphA2(h) (Homo sapiens, UniProt P29317)
T2 construct: purchased Millipore KinaseProfiler
T2 sequence (P29317 24-976): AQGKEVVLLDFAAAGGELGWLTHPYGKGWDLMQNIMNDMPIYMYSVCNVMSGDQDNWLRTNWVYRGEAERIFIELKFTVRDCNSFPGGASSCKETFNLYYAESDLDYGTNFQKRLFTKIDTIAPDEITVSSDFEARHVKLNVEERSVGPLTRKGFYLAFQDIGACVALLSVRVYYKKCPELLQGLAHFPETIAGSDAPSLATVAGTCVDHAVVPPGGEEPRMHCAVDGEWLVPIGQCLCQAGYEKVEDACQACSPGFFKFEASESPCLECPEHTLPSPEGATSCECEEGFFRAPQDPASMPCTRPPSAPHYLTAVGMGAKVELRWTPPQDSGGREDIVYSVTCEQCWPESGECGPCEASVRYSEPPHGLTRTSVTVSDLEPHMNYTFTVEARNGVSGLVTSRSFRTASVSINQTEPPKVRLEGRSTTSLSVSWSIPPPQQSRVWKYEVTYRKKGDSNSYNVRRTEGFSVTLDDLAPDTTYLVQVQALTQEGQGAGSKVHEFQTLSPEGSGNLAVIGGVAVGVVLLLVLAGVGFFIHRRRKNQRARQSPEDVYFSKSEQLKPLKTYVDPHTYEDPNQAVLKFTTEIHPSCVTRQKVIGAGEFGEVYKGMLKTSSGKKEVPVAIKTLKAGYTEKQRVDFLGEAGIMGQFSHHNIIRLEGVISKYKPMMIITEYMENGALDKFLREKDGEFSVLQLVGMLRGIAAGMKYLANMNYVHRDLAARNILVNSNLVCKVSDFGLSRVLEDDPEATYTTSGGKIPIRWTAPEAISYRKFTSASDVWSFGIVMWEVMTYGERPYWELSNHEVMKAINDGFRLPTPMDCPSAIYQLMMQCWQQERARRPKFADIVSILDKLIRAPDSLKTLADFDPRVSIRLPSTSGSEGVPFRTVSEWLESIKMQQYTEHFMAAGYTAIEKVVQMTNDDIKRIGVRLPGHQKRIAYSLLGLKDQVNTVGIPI

FGFR1(h) = target: T3, FGFR1(h) (Homo sapiens, UniProt P11362)
T3 construct: purchased Millipore KinaseProfiler
T3 sequence (P11362 22-822): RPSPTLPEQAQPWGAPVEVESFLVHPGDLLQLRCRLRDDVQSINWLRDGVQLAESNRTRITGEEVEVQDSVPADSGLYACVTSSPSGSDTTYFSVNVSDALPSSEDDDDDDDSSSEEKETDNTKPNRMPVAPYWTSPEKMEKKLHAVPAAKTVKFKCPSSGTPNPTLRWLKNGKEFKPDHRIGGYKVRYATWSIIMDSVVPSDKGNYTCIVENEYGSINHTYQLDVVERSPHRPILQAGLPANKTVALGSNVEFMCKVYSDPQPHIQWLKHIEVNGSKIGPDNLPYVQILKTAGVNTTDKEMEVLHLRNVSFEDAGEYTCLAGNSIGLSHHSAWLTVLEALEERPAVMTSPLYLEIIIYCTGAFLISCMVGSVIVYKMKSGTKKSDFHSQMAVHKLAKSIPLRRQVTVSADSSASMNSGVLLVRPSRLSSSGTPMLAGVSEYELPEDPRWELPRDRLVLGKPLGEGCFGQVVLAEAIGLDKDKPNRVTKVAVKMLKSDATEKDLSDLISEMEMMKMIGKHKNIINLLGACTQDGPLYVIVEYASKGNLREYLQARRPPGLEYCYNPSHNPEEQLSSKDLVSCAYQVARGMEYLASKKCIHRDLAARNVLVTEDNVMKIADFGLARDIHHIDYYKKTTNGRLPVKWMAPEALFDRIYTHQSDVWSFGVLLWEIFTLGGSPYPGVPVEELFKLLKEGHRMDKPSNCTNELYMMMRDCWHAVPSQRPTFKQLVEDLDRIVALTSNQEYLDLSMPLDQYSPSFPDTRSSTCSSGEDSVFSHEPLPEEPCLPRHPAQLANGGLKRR

MAPK2(h) = target: T4, MAPK2(h) (Homo sapiens, UniProt P28482)
T4 construct: purchased Millipore KinaseProfiler
T4 sequence (P28482 whole entry): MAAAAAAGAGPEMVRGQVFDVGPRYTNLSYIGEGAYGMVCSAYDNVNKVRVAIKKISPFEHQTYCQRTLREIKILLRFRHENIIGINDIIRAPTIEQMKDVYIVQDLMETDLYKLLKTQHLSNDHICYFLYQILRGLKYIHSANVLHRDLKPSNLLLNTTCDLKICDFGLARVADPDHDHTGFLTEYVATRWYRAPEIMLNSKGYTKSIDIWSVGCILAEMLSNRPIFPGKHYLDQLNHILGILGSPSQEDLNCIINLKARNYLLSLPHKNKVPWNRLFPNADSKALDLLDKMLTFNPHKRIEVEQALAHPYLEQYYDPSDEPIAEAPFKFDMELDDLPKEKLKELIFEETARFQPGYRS

mTOR/FKBP12(h) = target: T5, mTOR/FKBP12(h) (Homo sapiens, UniProt P42345)
T5 construct: purchased Millipore KinaseProfiler
T5 sequence (P42345 1362-2549 limits assumed): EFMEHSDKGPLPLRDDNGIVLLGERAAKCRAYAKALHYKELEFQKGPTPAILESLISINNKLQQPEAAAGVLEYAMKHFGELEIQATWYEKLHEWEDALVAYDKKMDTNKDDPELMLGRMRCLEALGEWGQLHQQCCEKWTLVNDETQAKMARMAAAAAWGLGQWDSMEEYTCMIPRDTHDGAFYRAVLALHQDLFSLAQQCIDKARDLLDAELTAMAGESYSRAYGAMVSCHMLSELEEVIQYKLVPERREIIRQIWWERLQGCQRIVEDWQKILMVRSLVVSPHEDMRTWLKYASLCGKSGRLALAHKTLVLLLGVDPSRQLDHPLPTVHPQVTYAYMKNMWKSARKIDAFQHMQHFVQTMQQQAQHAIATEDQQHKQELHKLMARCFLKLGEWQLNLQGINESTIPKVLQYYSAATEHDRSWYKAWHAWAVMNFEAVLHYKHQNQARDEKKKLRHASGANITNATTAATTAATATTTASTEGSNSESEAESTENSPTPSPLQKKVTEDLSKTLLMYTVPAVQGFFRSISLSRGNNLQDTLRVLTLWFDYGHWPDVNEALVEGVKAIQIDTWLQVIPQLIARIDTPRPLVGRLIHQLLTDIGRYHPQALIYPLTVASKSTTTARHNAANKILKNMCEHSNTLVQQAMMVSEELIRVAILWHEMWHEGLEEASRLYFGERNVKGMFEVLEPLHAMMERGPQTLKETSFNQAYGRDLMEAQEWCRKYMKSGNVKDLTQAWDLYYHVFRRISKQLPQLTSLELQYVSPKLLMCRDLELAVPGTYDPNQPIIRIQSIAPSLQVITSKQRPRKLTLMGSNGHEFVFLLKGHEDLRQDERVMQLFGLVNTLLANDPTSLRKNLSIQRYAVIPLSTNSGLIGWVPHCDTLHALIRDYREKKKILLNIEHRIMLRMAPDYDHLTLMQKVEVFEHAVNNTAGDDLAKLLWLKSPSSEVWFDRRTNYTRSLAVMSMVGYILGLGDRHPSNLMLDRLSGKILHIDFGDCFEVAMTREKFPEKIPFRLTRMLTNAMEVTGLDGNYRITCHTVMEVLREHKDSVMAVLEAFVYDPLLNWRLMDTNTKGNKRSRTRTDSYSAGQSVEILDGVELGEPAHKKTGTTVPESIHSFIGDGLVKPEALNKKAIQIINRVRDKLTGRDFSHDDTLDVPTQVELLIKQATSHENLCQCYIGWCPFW

PhKγ2(h) = target: T6, PhKγ2(h) (Homo sapiens, UniProt P15735)
T6 construct: purchased Millipore KinaseProfiler
T6 sequence (P15735 1-406): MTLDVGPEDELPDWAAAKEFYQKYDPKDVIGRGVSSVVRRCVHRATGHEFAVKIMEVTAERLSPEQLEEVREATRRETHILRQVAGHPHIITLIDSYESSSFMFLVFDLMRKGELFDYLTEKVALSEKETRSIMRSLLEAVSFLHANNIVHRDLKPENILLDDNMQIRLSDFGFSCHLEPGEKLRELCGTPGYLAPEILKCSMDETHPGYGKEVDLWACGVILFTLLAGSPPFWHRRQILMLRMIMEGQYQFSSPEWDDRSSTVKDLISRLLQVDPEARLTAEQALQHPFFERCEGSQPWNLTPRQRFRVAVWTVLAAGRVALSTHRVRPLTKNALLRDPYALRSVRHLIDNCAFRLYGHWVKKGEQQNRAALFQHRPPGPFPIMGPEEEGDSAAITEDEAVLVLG

SAPK3(h) = target: T7, SAPK3(h) (Homo sapiens, UniProt P53778)
T7 construct: purchased Millipore KinaseProfiler
T7 sequence (P53778 1-367): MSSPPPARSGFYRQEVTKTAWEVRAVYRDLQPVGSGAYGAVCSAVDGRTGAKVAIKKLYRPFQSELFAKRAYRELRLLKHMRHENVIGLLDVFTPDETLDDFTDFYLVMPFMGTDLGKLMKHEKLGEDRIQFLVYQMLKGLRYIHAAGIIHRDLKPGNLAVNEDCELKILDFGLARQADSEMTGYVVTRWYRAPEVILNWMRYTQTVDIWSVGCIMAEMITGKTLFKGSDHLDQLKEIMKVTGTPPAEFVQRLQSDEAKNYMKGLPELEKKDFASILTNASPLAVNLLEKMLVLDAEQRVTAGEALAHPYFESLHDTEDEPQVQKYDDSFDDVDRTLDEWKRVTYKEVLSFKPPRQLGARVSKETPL

ULK3(h) = target: T8, ULK3(h) (Homo sapiens, UniProt Q6PHR2)
T8 construct: purchased Millipore KinaseProfiler
T8 sequence (Q6PHR2 1-472): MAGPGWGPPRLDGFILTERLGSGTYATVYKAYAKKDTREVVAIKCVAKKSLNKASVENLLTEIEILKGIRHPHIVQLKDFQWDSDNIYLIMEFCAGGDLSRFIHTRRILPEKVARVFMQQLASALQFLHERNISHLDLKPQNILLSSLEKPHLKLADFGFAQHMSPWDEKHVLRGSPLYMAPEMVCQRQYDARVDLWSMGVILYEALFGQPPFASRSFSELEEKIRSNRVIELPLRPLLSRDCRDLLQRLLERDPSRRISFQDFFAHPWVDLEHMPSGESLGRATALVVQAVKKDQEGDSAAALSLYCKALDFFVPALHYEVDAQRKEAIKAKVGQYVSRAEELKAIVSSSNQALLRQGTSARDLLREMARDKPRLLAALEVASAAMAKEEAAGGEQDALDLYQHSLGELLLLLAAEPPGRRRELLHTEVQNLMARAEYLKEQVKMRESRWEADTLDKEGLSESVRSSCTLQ

In the case of `Cn1ncc(Cl)c1-c1cc(C(=O)N[C@H](CN)Cc2cccc(F)c2)sc1Cl` [GSK2110183], the inhibition at 0.5 µM (BrSK2(h)) is reported as -2%, the inhibition at 10 µM (BrSK2(h)) is reported as 17% and the inhibition at 0.5 µM (EphA2(h)) is reported as -17%. It also gave an inhibition at 10 µM (EphA2(h)) of -4%, an inhibition at 0.5 µM (FGFR1(h)) of -8% and an inhibition at 10 µM (FGFR1(h)) of -5%. It also gave an inhibition at 0.5 µM (MAPK2(h)) of -2%, an inhibition at 10 µM (MAPK2(h)) of 17% and an inhibition at 0.5 µM (mTOR/FKBP12(h)) of 3%. For the same compound, the inhibition at 10 µM (mTOR/FKBP12(h)) was 5%, the inhibition at 0.5 µM (PhKγ2(h)) was 31% and the inhibition at 10 µM (PhKγ2(h)) was 89%. For the same compound, the inhibition at 0.5 µM (SAPK3(h)) was -6%, the inhibition at 10 µM (SAPK3(h)) was 20% and the inhibition at 0.5 µM (ULK3(h)) was 20%. For the same compound, the inhibition at 10 µM (ULK3(h)) was 72%.

`Cn1ncc(Cl)c1-c1cc(C(=O)N[C@H](CN)Cc2ccc(F)c(F)c2)oc1Cl` [GSK2141795] was tested, and the inhibition at 0.5 µM (BrSK2(h); 0.5 µM, read-out: % Inhibition) was 2%, the inhibition at 10 µM (BrSK2(h); 10 µM, read-out: % Inhibition) was 27% and the inhibition at 0.5 µM (EphA2(h); 0.5 µM, read-out: % Inhibition) was 25%. The inhibition at 10 µM (EphA2(h); 10 µM, read-out: % Inhibition) was 39%, the inhibition at 0.5 µM (FGFR1(h); 0.5 µM, read-out: % Inhibition) was -15% and the inhibition at 10 µM (FGFR1(h); 10 µM, read-out: % Inhibition) was -6%. It also gave an inhibition at 0.5 µM (MAPK2(h); 0.5 µM, read-out: % Inhibition) of 11%, an inhibition at 10 µM (MAPK2(h); 10 µM, read-out: % Inhibition) of 49% and an inhibition at 0.5 µM (mTOR/FKBP12(h); 0.5 µM, read-out: % Inhibition) of -19%. For the same compound, the inhibition at 10 µM (mTOR/FKBP12(h); 10 µM, read-out: % Inhibition) was -21%, the inhibition at 0.5 µM (PhKγ2(h); 0.5 µM, read-out: % Inhibition) was 23% and the inhibition at 10 µM (PhKγ2(h); 10 µM, read-out: % Inhibition) was 88%. The inhibition at 0.5 µM (SAPK3(h); 0.5 µM, read-out: % Inhibition) was -14%, the inhibition at 10 µM (SAPK3(h); 10 µM, read-out: % Inhibition) was 14% and the inhibition at 0.5 µM (ULK3(h); 0.5 µM, read-out: % Inhibition) was 0%. It also gave an inhibition at 10 µM (ULK3(h); 10 µM, read-out: % Inhibition) of 49%.

— article PMC4076210, “Discovery of Novel AKT Inhibitors with Enhanced Anti-Tumor Effects in Combination with the MEK Inhibitor” (PLoS ONE, 2014)
